In patent publication US12509460B2 (Skyhawk Therapeutics, Inc., priority 2019, dated 2025):
pEC50: −log10 of the molar value.

Legend:
[1] = test system: SMN protein in spinal muscular atrophy (SMA) patient fibroblasts (GM03813, Coriell); test: SMN protein assay, Mesoscale Discovery (MSD); assay type: cell-based, human; conditions: SMA patient fibroblasts (GM03813), 48 hours; for pEC50: read-out: SMN2 protein EC50
Method in brief: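 Absolute SMN levels were quantified by MSD against an SMN protein standard curve (1 μg/ml to 19.5 pg/ml) run on each plate. Samples were lysates of GM03813 patient fibroblasts (7000 cells/well) treated 48 hours with compound doses from 2.5 μM down to 0.6 nM.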

MDR1 (P-gp) = test: in vitro; conditions: dog, MDCK-MDR1, pH 7.4
MDR1 = test: in vitro; conditions: dog, MDCK-MDR1, pH 7.4
[2] = test system: mHTT protein in GM04724 (CAG 70/20) Huntington's disease patient lymphoblast cells; test: mHTT protein assay, 2B7-MW1 assay via Mesoscale Discovery (MSD); assay type: cell-based, human; conditions: GM04724 (CAG 70/20) Huntington's disease patient lymphoblasts
Method in brief: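 Signal from the 2B7-MW1 antibody pair on MSD, rising with polyQ length and smaller HTT fragments, measured mHTT after 48 h compound exposure (0.6 nM–10 μM) in GM04724 cells. A parallel replicate plate gave CellTiter Glo viability.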

[3] = test system: MDR1-MDCK cell monolayers; conditions: dog, MDCK-MDR1, 120 min, 5 μM, pH 7.4

Structure (SMILES) | SMN2 protein EC50 [1] | Papp A→B at 120 min, 5 μM (MDR1 (P-gp)) [×10⁻⁶ cm/s] | Papp B→A at 120 min, 5 μM (MDR1 (P-gp)) [×10⁻⁶ cm/s] | efflux ratio at 120 min, 5 μM (MDR1) | mHTT protein EC50 [2] | MDCK-MDR1: % Recov A-B [3] [%] | MDCK-MDR1: % Recov B-A [3] [%] | pEC50 [1]
CN(c1ccc(-c2cc3ncn(CC(F)(F)F)c(=O)c3cc2O)nn1)[C@@H]1C[C@H]2CC(F)(F)[C@@H](C1)N2C (single isomer, unassigned) [Compound 110A] | E (501 ≤ E ≤ 10.000) | 11 | 44.4 | 4 | E (501 ≤ E ≤ 10.000) | 80 | 92 | –
CN(c1ccc(-c2cc3ncn(CC(F)(F)F)c(=O)c3cc2O)nn1)[C@H]1C[C@@H]2CC(F)(F)[C@H](C1)N2C (single isomer, unassigned) [Compound 110B] | E (501 ≤ E ≤ 10.000) | 11.7 | 47.4 | 4 | E (501 ≤ E ≤ 10.000) | 86 | 93 | –
CN1[C@@H]2CC[C@H]1[C@H](F)[C@H](N(c1ccc(-c3cc4ncn(CC(F)(F)F)c(=O)c4cc3O)nn1)C1CC1)C2 (single isomer, unassigned) [Compound 111A] | E (501 ≤ E ≤ 10.000) | 0.89 | 44.3 | 45 | E (501 ≤ E ≤ 10.000) | 90 | 83 | –
CN1[C@H]2CC[C@@H]1[C@@H](F)[C@@H](N(c1ccc(-c3cc4ncn(CC(F)(F)F)c(=O)c4cc3O)nn1)C1CC1)C2 (single isomer, unassigned) [Compound 111B] | E (501 ≤ E ≤ 10.000) | 0.66 | 35.9 | 54 | E (501 ≤ E ≤ 10.000) | 74 | 56 | –
CN(c1ccc(-c2ccccc2O)nn1)[C@H]1C[C@@H]2CC[C@@H](N2)[C@H]1F (single isomer, unassigned) [Compound 119B] | E (501 ≤ E ≤ 10.000) | 6.13 | 58.2 | 9 | E (501 ≤ E ≤ 10.000) | 93 | 95 | –
CN(c1ccc(-c2ccc(C(F)F)cc2O)nn1)[C@@H]1C[C@H]2CC[C@H](N2)[C@@H]1F (single isomer, unassigned) [Compound 120A] | E (501 ≤ E ≤ 10.000) | 4.59 | 34.8 | 8 | E (501 ≤ E ≤ 10.000) | 76 | 74 | –
CN(c1ccc(-c2ccc(C(F)F)cc2O)nn1)[C@H]1C[C@@H]2CC[C@@H](N2)[C@H]1F (single isomer, unassigned) [Compound 120B] | E (501 ≤ E ≤ 10.000) | 5.84 | 27.3 | 5 | E (501 ≤ E ≤ 10.000) | 60 | 76 | –
CN(c1ccc(-c2ccc(Oc3nccn3C)cc2O)nn1)[C@@H]1C[C@H]2CC[C@H](N2)[C@@H]1F (single isomer, unassigned) [Compound 123A] | E (501 ≤ E ≤ 10.000) | 0.76 | 59.7 | 79 | E (501 ≤ E ≤ 10.000) | 97 | 102 | –
CN(c1ccc(-c2ccc(Oc3nccn3C)cc2O)nn1)[C@H]1C[C@@H]2CC[C@@H](N2)[C@H]1F (single isomer, unassigned) [Compound 123B] | – | 0.66 | 58.7 | 89 | E (501 ≤ E ≤ 10.000) | 92 | 102 | 6.30 to 7.00
CN(c1ccc(-c2ccc(-n3cnc(C(=O)NC(C)(C)C)c3)cc2O)nn1)[C@@H]1C[C@H]2CC[C@H](N2)[C@@H]1F (single isomer, unassigned) [Compound 124A] | – | 0.34 | 45.7 | 133 | E (501 ≤ E ≤ 10.000) | 78 | 78 | 6.30 to 7.00
